Test [1] concerns MDA-MB-231. Nature of the test: Cytotoxicity against human MDA-MB-231 cells assessed as reduction in cell viability incubated for 24 hrs by MTT assay. Type of test: functional, cell-based. The following applies: MDA-MB-231, 24 h.
In test [2] the test system is HEK293. Kind of test: Cytotoxicity against HEK293 cells assessed as reduction in cell viability incubated for 24 hrs by MTT assay. It counts as ADME, cell-based. As to conditions: Homo sapiens, HEK293, 24 h.
Test [3] relates to MCF7. Kind of test: Cytotoxicity against human MCF7 cells assessed as reduction in cell viability incubated for 24 hrs by MTT assay. It counts as functional, cell-based. The following applies: MCF7, 24 h. In general terms: Formazan colour is commonly taken as a measure of viable cells.
Test [4] concerns MDA-MB-231. Kind of test: Induction of apoptosis in human MDA-MB-231 cells at 0.125 to 0.25 uM incubated for 24 hrs by Annexin V-FITC/propidium iodide staining based flow cytometry. It counts as functional, cell-based.
The test system of test [5] is MDA-MB-231. Nature of the test: Cell cycle arrest in human MDA-MB-231 cells assessed as increase in accumulation at G1 phase at 0.125 to 0.25 uM incubated for 24 hrs by propidium iodide staining based flow cytometry. It counts as functional.
Test [6] concerns MDA-MB-231. Kind of test: Cell cycle arrest in human MDA-MB-231 cells assessed as increase in accumulation at subG1 phase at 0.125 uM incubated for 24 hrs by propidium iodide staining based flow cytometry. It counts as functional. For orientation: In flow cytometry, cells or beads pass a laser one at a time.
Test [7] relates to MDA-MB-231. Nature of the test: Cell cycle arrest in human MDA-MB-231 cells assessed as reduction in accumulation at G2/M phase at 0.125 to 0.25 uM incubated for 24 hrs by propidium iodide staining based flow cytometry. Type of test: functional.

IC50 and Activity data for 11 compounds are collected here from ChEMBL document CHEMBL4184216, “Diversity oriented synthesis of chromene-xanthene hybrids as anti-breast cancer agents” (Bioorg Med Chem Lett, 2018).

Counter-ions that a name gives are not always drawn. The source made the active and inactive calls. No cut-off for these calls is given here. Some results are limits rather than exact numbers.

For `COc1cccc(C2C3=C(Oc4ccc(C[C@@H](CO)NC(=O)OC(C)(C)C)cc42)c2ccccc2OC3(C)C)c1` (stereo not given in full), the IC50 in test [1] is 2.9 µM; in test [2], above 25 µM; in test [3], 29.9 µM.

As to `COc1ccccc1C1C2=C(Oc3ccc(C[C@H](N)CO)cc31)c1ccccc1OC2(C)C` (stereo not given in full), the Activity entry in test [4] was “Dose-dependent effect”. Also, the outcome in test [5], in test [6] and in test [7] was Active. Besides, the IC50 in test [1] was 2.5 µM; in test [2] it was above 25 µM; in test [3] it was 2.6 µM.

`COc1ccc2c(c1)C(c1ccc(SC)cc1)C1=C(O2)c2ccccc2OC1(C)C` (stereo not given): the IC50 is 17.1 µM in test [1], above 25 µM in test [2] and 20 µM in test [3].

On to `COc1ccccc1C1C2=C(Sc3ccc(Cl)cc31)c1ccccc1OC2(C)C` (stereo not given), for which the IC50 in test [1] is 48.6 µM; in test [2], above 25 µM; in test [3], 39.5 µM.

As for `COc1ccccc1C1C2=C(Oc3ccc(C[C@H]4COC(C)(C)N4C(=O)OC(C)(C)C)cc31)c1ccccc1OC2(C)C` (stereo not given in full), the IC50 in test [1] was 29 µM; in test [2], above 25 µM; in test [3], 22.3 µM.

Turning to `CSc1ccc(C2C3=C(Oc4ccc(C[C@@H](CO)NC(=O)OC(C)(C)C)cc42)c2ccccc2OC3(C)C)cc1` (stereo not given in full), the figures for the IC50 in test [1], in test [2] and in test [3] were 21.1 µM, above 25 µM and 32 µM, respectively.

With `COc1cccc2c1C(c1cccs1)C1=C(S2)c2ccccc2OC1(C)C` (stereo not given), the IC50 was 29 µM in test [1], above 25 µM in test [2] and 26.3 µM in test [3].

In the case of `COc1ccc(C2C3=C(Sc4ccc(Cl)cc42)c2ccccc2OC3(C)C)cc1` (stereo not given), the IC50 in test [1] is 19.1 µM; in test [2], above 25 µM; in test [3], 39 µM.

With `COc1cccc(C2C3=C(Oc4ccc(C[C@H](N)CO)cc42)c2ccccc2OC3(C)C)c1` (stereo not given in full), the half-inhibitory concentration (IC50) in test [1] is 3.5 µM; in test [2] it was above 25 µM; in test [3], 2.1 µM.

Turning to `CC1(C)Oc2ccccc2C2=C1C(c1cccs1)c1cc(Cl)ccc1S2` (stereo not given), the IC50 in test [1] is 29 µM; in test [2] it was above 25 µM; in test [3], 22.3 µM.

With `CC/C(=C(\c1ccccc1)c1ccc(OCCN(C)C)cc1)c1ccccc1` [TAMOXIFEN CITRATE], the IC50 in test [2] was 30 µM.

The term IC50 denotes the concentration that inhibits the measured activity by half.
